The values that follow come from patent US20110230485A1, “6-PHENYL-PYRIMIDIN-4-YL-(PHENYLAMINE OR PHENOXY) DERIVATIVES USEFUL AS MODULATORS OF NICOTINIC ACETYLCHOLINE RECEPTORS” (NEUROSEARCH A/S, priority 2008, published 2011).

The structures appear in SMILES notation.

Data set [1] has as its target T1, wild-type nAChR α7 receptors (Homo sapiens, UniProt P36544).
T1 construct: expressed in transfected cells; host or cells: Xenopus laevis oocytes
Put plainly: Positive modulation of nAChR α7 receptors expressed in Xenopus laevis oocytes, two-electrode voltage clamp. As to conditions: oocytes clamped at −60 mV; for Emax: read-out: Imax; for EC50: positive modulation of current induced by 100 μM acetylcholine, test compound 0.01-31.6 μM applied 30 s before and during acetylcholine. Format: cell-based. As to the method: In this example the positive modulation of wild-type nAChR α7 receptors by the compounds of the invention was determined using nAChR α7 receptors heterologously expressed in Xenopus laevis oocytes.
The electrical current through the nAChR α7 channel was measured using conventional two-electrode voltage clamp and nAChR α7 currents were activated by applying pulses of agonist-containing solution onto the nAChR α7 expressing oocyte.
In brief, the oocytes were placed in a recording chambers and continuously super-fused with an Oocyte Ringer (OR) solution containing 90 mM NaCl, 2.5 mM KCl, 2.5 mM CaCl2, 1 mM MgCl2 and 5 mM HEPES (pH adjusted to 7.4). The oocytes were clamped at −60 mV and currents were induced by applying 20 s pulses of 100 μM acetylcholine dissolved in OR. The intervals between the acetylcholine applications were 5 minutes, during which the oocytes were washed with OR. The first three applications were control applications to insure a constant response level of 100 μM acetylcholine. For the subsequent test applications, increasing concentrations (0.01-31.6 μM) of the test compound were applied 30 s before and during the acetylcholine (100 μM) application, which caused a robust increase in the acetylcholine-induced current amplitude.
The positive modulation in the presence of Compound was calculated as (test-control)/control×100% and the concentration response curve for this positive modulation was fitted to the sigmoidal logistic equation:
I=Imax/(1+(EC50/[compound])^n),
where Imax represents the maximal modulation of the control response, EC50 is the concentration causing a half maximal response, and n is the slope coefficient.
In general terms: Two-electrode voltage clamp holds a large cell at a set potential and records current.

The mark [2] stands for this setting: maximal modulation of the control response to 100 μM acetylcholine, (test-control)/control×100%.

What is called EC50 is the concentration at which the effect is half-maximal. Higher therefore signals lower potency in that assay. One may read the melting point as the temperature of the solid-liquid transition.

T1 sequence (P36544 23-502): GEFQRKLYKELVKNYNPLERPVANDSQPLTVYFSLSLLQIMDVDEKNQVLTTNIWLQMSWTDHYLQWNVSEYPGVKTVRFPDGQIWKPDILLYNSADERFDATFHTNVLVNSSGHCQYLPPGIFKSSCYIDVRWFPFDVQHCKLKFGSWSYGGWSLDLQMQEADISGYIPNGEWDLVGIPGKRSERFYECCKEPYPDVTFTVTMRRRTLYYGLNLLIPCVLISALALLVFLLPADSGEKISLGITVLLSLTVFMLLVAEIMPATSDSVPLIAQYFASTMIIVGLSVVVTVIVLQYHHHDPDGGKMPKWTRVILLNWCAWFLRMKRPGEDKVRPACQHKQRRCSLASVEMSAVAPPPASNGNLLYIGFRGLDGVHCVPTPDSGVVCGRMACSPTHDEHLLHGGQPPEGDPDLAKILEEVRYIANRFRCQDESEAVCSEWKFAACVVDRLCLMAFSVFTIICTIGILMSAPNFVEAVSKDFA

As to `COc1ccc(Nc2nc(C)nc(-c3ccc(C(F)(F)F)cc3F)c2N)cc1` [Compound 1.16, 6-(2-Fluoro-4-trifluoromethyl-phenyl)-N*4*-(4-methoxy-phenyl)-2-methyl-pyrimidine-4,5-diamine], the Emax in data set [1] (setting [2]) was 495%. The compound also had an EC50 in data set [1] of 4.9 µM.

Consider `CSc1cccc(Nc2nc(C)nc(-c3ccc(C(F)(F)F)cc3F)c2N)c1` [Compound 1.32, 6-(2-Fluoro-4-trifluoromethyl-phenyl)-2-methyl-N*4*-(3-methylsulfanyl-phenyl)-pyrimidine-4,5-diamine], for which the Emax in data set [1] (setting [2]) is 245%. The same compound yielded an EC50 in data set [1] of 9.8 µM.

`COc1ccc(Nc2ncnc(-c3ccc(C(F)(F)F)cc3F)c2N)cc1` [Compound 1.3, 6-(2-Fluoro-4-trifluoromethyl-phenyl)-N*4*-(4-methoxy-Phenyl)-pyrimidine-4,5-diamine] returned a melting point of 212.1 to 213.2 °C. In data set [1], this compound registered an EC50 of 2.3 µM.

For `Nc1c(Nc2ccc3[nH]ncc3c2)ncnc1-c1ccc(C(F)(F)F)cc1F` [Compound 1.12, 6-(2-Fluoro-4-trifluoromethyl-phenyl)-N*4*-(1H-indazol-5-yl)-pyrimidine-4,5-diamine], in data set [1] (setting [2]), the Emax turned out to be 184%. In data set [1], this compound yielded an EC50 of 9.9 µM.

Take `Cc1nc(Nc2ccc3ccccc3c2)c(N)c(-c2ccc(C(F)(F)F)cc2F)n1` [Compound 1.34, 6-(2-Fluoro-4-trifluoromethyl-phenyl)-2-methyl-N*4*-naphthalen-2-v1-pyrimidine-4,5-diamine]: the Emax in data set [1] (setting [2]) was found to be 148%. In data set [1], this compound had an EC50 of 4.3 µM.

For the compound `COc1ccc(Oc2ncnc(-c3ccc(C(F)(F)F)cc3F)c2N)cc1` [Compound 2.2, 4-(2-Fluoro-4-trifluoromethyl-phenyl)-6-(4-methoxy-phenoxy)-pyrimidin-5-ylamine], in data set [1] (setting [2]), the Emax is 119%. Besides, in data set [1], the midpoint of the response, the EC50, lay at 6.6 µM.

`COc1ccc(Nc2ncnc(-c3ccc(C(F)(F)F)cc3F)c2N)cn1` [Compound 1.6, 6-(2-Fluoro-4-trifluoromethyl-phenyl)-N*4*-(6-methoxy-rwridin-3-yl)-pyrimidine-4,5-diamine] gave an Imax in data set [1] (setting [2]) of 129%.

On to `O=[N+]([O-])c1c(Nc2ccc(O)cc2)ncnc1-c1ccc(C(F)(F)F)cc1F` [Compound 1.2, 4-[6-(2-Fluoro-4-trifluoromethyl-phenyl)-5-nitro-pyrimidin-4-ylamino]-phenol], for which the melting point was 169 to 171.5 °C. Also, in data set [1] (setting [2]), the Emax came out at 391%. In data set [1], this compound yielded an EC50 of 23 µM.

Turning to `Nc1c(Oc2ccc(O)cc2)ncnc1-c1ccc(C(F)(F)F)cc1F` [Compound 2.3], the Emax in data set [1] (setting [2]) turned out to be 104%. For the same compound, the EC50 in data set [1] was determined as 15 µM.

Take `Nc1c(Nc2ccc3[nH]ccc3c2)ncnc1-c1ccc(C(F)(F)F)cc1F` [Compound 1.10, 6-(2-Fluoro-4-trifluoromethyl-phenyl)-N*4*-(1H-indol-5-yl)-pyrimidine-4,5-diamine]: in data set [1] (setting [2]), the Emax was 631%. In data set [1], the EC50 is 0.24 µM.

With `COc1ccc(Nc2ncnc(-c3ccc(C(F)(F)F)cc3F)c2[N+](=O)[O-])cn1` [Compound 1.5, [6-(2-Fluoro-4-trifluoromethyl-phenyl)-5-nitro-pyrimidin-4-yl]-(6-methoxy-pyridin-3-yl)-amine], the Emax in data set [1] (setting [2]) came to 137%. The compound also yielded an EC50 in data set [1] of 6.6 µM.

Take `Cc1nc(Oc2ccc3c(c2)OCO3)c(N)c(-c2ccc(C(F)(F)F)cc2F)n1` [Compound 2.9]: the Emax in data set [1] (setting [2]) amounted to 35%. The compound further gave a concentration giving a half-maximal response (EC50) in data set [1] of 0.74 µM.

Consider `Nc1c(Nc2ccc(O)nc2)ncnc1-c1ccc(C(F)(F)F)cc1F` [Compound 1.11, 5-[5-Amino-6-(2-fluoro-4-trifluoromethyl-phenyl)-pyrimidin-4-ylamino]-pyridin-2-ol], for which, in data set [1] (setting [2]), the Emax came out at 22%.

`Nc1c(Nc2ccc(S(N)(=O)=O)cc2)ncnc1-c1ccc(C(F)(F)F)cc1F` [Compound 1.8, 4-[5-Amino-6-(2-fluoro-4-trifluoromethyl-phenyl)-pyrimidin-4-ylamino]-benzenesulfonamide]: the Emax in data set [1] (setting [2]) amounted to 237%. In data set [1], this compound yielded a 50% effective concentration (EC50) of 6.8 µM.

`O=[N+]([O-])c1c(Nc2ccc3[nH]ccc3c2)ncnc1-c1ccc(C(F)(F)F)cc1F` [Compound 1.9, [6-(2-Fluoro-4-trifluoromethyl-phenyl)-5-nitro-pyrimidin-4-yl]-(1H-indol-5-yl)-amine]: in data set [1] (setting [2]), the Emax turned out to be 527%. Besides, the EC50 in data set [1] came to 6.9 µM.

On to `COc1ccc(Oc2nc(C)nc(-c3ccc(C(F)(F)F)cc3F)c2N)cc1` [Compound 2.13, 4-(2-Fluoro-4-trifluoromethyl-phenyl)-6-(4-methoxy-phenoxy)-2-methyl-pyrimidin-5-ylamine], for which the Emax in data set [1] (setting [2]) was 42%. Besides, the midpoint of the response in data set [1], the EC50, lay at 6 µM.

With `Nc1c(Nc2ccc(O)cc2)ncnc1-c1ccc(C(F)(F)F)cc1F` [Compound 1.4, 4-[5-Amino-6-(2-fluoro-4-trifluoromethyl-phenyl)-pyrimidin-4-ylamino]-phenol], the melting point was in the range of 194.2 to 195.7 °C.

As for `COc1cccc(Nc2nc(C)nc(-c3ccc(C(F)(F)F)cc3F)c2N)c1` [Compound 1.31, 6-(2-Fluoro-4-trifluoromethyl-phenyl)-N*4*-(3-methoxy-phenyl)-2-methyl-pyrimidine-4,5-diamine], in data set [1] (setting [2]), the Emax turned out to be 193%. Also, in data set [1], the response was half-maximal at 5.7 µM (EC50).

In the case of `Nc1c(Nc2ccc(OCC3CC3)cc2)ncnc1-c1ccc(C(F)(F)F)cc1F` [Compound 1.14, N*4*-(4-Cyclopropylmethoxy-phenyl)-6-(2-fluoro-4-trifluoromethyl-phenyl)-pyrimidine-4,5-diamine], in data set [1] (setting [2]), the Emax was 3%.

As to `Nc1c(Nc2ccc3c(c2)OCO3)ncnc1-c1ccc(C(F)(F)F)cc1F` [Compound 1.13, N*4*-Benzo[1,3]dioxol-5-yl-6-(2-fluoro-4-trifluoromethyl-phenyl)-pyrimidine-4,5-diamine], the Emax in data set [1] (setting [2]) turned out to be 848%. The compound also gave an EC50 in data set [1] of 54 µM.

`COc1ccc(Nc2ncnc(-c3ccc(C(F)(F)F)cc3F)c2[N+](=O)[O-])cc1` [Compound 1.1, [6-(2-Fluoro-4-trifluoromethyl-phenyl)-5-nitro-pyrimidin-4-yl]-(4-methoxy-phenyl)-amine] yielded a melting point of 155.6 to 155.8 °C. Moreover, in data set [1] (setting [2]), the Emax is 2%.

On to `Cc1nc(Nc2ccc3c(c2)OCCO3)c(N)c(-c2ccc(C(F)(F)F)cc2F)n1` [Compound 1.29, N*4*-(2,3-Dihydro-benzo[1,4 dioxin-6-yl)-6-(2-fluoro-4-trifluoromethyl-phenyl)-2-methyl-pyrimidine-4,5-diamine], for which, in data set [1] (setting [2]), the Emax turned out to be 297%. The same compound came in with an EC50 in data set [1] of 9.4 µM.

`COc1ccc(Nc2nc(C)nc(-c3ccc(C(F)(F)F)cc3F)c2N)c(OC)c1` [Compound 1.33, N*4*-(2,4-Dimethoxy-phenyl)-6-(2-fluoro-4-trifluoromethyl-phenyl)-2-methyl-pyrimidine-4,5-diamine]: the Emax in data set [1] (setting [2]) was 11%. Further, the concentration giving a half-maximal response (EC50) in data set [1] came to 1.1 µM.

For `COc1ccc(Oc2ncnc(-c3ccc(C(F)(F)F)cc3F)c2[N+](=O)[O-])cc1` [Compound 2.1, 4-(2-Fluoro-4-trifluoromethyl-phenyl)-6-(4-methoxy-phenoxy)-5-nitro-pyrimidine], the Emax in data set [1] (setting [2]) worked out at 19%.

Consider `Cc1ccc(Nc2nc(C)nc(-c3ccc(C(F)(F)F)cc3F)c2N)cc1` [Compound 1.27, 6-(2-Fluoro-4-trifluoromethyl-phenyl)-2-methyl-N*4*-p-tolyl-pyrimidine-4,5-diamine], for which the Emax in data set [1] (setting [2]) stood at 503%. This compound also showed an EC50 in data set [1] of 3.4 µM.
